Laboratory results: patent US6572896B1, “Methods for inhibiting cell motility” (A.T. Still University of Health Sciences, priority 1998, dated 2003)
Values joined by “and” are separate entries in the source; they are usually repeats but may differ in a detail not shown here. Identical values can stand only once. Like-named read-outs stand apart in the source and are kept apart here. Marks after values point to notes of the source that are not given here.

Key:
[1] = test system: B16F10 melanoma cells; assay: Motility assay in blind-well migration chambers with gelatin-coated filter; type: cell-based; conditions: for Motility with Verapamil (mean number of cells per filter): n = 2 filters
[2] = test system: A2058 human melanoma cells; conditions: cited from earlier work
[3] = test system: voltage-gated channels that control quantal neurotransmitter release; conditions: Gd^3+ up to 100 μM; cited from earlier work
[4] = test system: B16F10 cells; assay: Cell growth after 12 hour Gd^3+ exposure and washout; type: cell-based; conditions: Gd^3+ 20 μM in RPMI-E2 12 hours, washed, then growth medium without Gd^3+
Description: The potential long term effects of Gd^3+ on cell growth were determined. […] The cell growth was observed after the Gd^3+ was washed from the cells.

[5] = test system: B16F10 cells; assay: Trypan blue exclusion assay (cell viability)
Description: A test was run to determine the toxicity of Gd^3+ on cells when exposed for seven hours. B16F10 cells were incubated for 12 hours with Gd^3+ at a concentration of 20 μM in the RPMI-E2 solution. A different batch of B16F10 cells were incubated for 12 hours without Gd^3+ in the RPMI-E2 solution. The cells were then examined with a Trypan blue exclusion assay.

[6] = test system: B16F10 melanoma cells; assay: Microscopic examination of cell morphology; type: cell-based; conditions: 4 hours
Description: Cell morphology was examined under conditions that were used in the motility assays. B16F10 melanoma cells were cultured directly on gelatin coated glass cover slips (0.1% gelatin for 2 hours and then air dried) for 24 hours under standard cell culture conditions. Culture media was then removed and the cells were washed twice with phosphate buffered saline (PBS) before being exposed to either 0.54 mM, 5.4 mM, or 54 mM K^+ in iso-osmotic saline solutions that were based on the electrolyte composition of RPMI-1640 media. Some solutions also contained GdCl3 or TbCl3 in a concentration of 20 μM. The cells were incubated at 5% CO2 and 37° C. for 4 hours before cells were photographed using an Olympus (IMT-2) inverted microscope.
In order to examine the effects of Gd^3+ and extracellular K^+ concentration on the morphology of the cells, B16F10 melanoma cells were grown under normal conditions on gelatin-coated glass coverslips. The cells were then washed twice with PBS and placed in solutions containing the following concentrations of K^+ and Gd^3+ for exposure periods of 4 hours: […]

[7] = GdCl3 20 μM, RPMI-E2, normal K^+ and Ca^2+, seven hours, two independent runs
[8] = Gd^3+ 20 μM in RPMI-E2, 12 hours

[Ca+2] [Ca^2+]
increase in the motility of the cells ([1]; elevated Ca^2+ (4 mM) vs normal (0.4 mM)): ~20%
Motility (mean number of cells per filter) ([1]; extracellular Ca^2+ 0.4 mM (RPMI-E, normal), no bFGF): 78 ± 4^b cells per filter
Motility (mean number of cells per filter) ([1]; extracellular Ca^2+ 4.0 mM (RPMI-E4Ca, elevated), no bFGF): 100 ± 6 cells per filter

[Cl-].[Cl-].[Co+2] [CoCl2]
inhibition of cell motility [1]: approximately 87%
Motility (mean number of cells per filter) ([1]; 2 mM): 43 ± 4 cells per filter
inhibition of tumor cell motility [2]: completely ineffective

[Cl][Gd]([Cl])[Cl] [GdCl3]
effect on voltage-gated channels [3]: no effect
Motility (mean number of cells per filter) ([1]; Gd 20 μM, K^+ 0.54 mM (RPMI-E2 low K^+)): 240 ± 40^b cells per filter
Motility (mean number of cells per filter) ([1]; Gd 20 μM, K^+ 54.0 mM (RPMI-E2 high K^+)): 113 ± 10 cells per filter
inhibition of cell motility ([1]; GdCl3 20 μM, High Ca^2+ HEPES Ringer solution (Example 1)): 71%
Motility (mean number of cells per filter) ([1]; GdCl3 20 μM, High Ca^2+ HEPES Ringer solution, 2 h preincubation + 5 h assay, bFGF): 95 ± 6 cells per filter
Motility (mean number of cells per filter) [1, 7]: 33 ± 6 cells per filter and 50 ± 10 cells per filter
reduction of motility [1, 7]: 73% and 75%
inhibition of cell motility ([1]; Gd^3+ 20 μM, 0.54 mM K^+): 83%
inhibition of cell motility ([1]; Gd^3+ 20 μM, 54 mM K^+): 90.5%
effect on cell growth after washout [4]: No obvious inhibitory effect on cell growth
cells stained blue [5, 8]: Less than 1%
viability versus cells not treated [5, 8]: no difference in viability
Trypan Blue exclusion of vacuolated cells (membrane integrity) ([5]; after 20 μM Gd^3+, low K^+, 4 hours): vacuolated cells excluded dye
cell morphology ([6]; 20 μM Gd^3+, low K^+ (0.54 mM)): rounded and flattened cells with prominent vacuoles
cell morphology ([6]; 20 μM Gd^3+, normal K^+ (5.4 mM)): larger, rounded cells devoid of pseudopodia
cell morphology ([6]; 20 μM in bathing solution): the cells had flattened and spread further

[K+] [K^+]
Motility (mean number of cells per filter) ([1]; K^+ 0.54 mM, absence of Gd): 1387 ± 103^b cells per filter
Motility (mean number of cells per filter) ([1]; K^+ 2.75 mM, absence of Gd): 1164 ± 1006 cells per filter
Motility (mean number of cells per filter) ([1]; K^+ 3.87 mM, absence of Gd): 591 ± 40 cells per filter
Motility (mean number of cells per filter) ([1]; K^+ 5.4 mM (normal, RPMI-E2), absence of Gd): 475 ± 20 cells per filter
Motility (mean number of cells per filter) ([1]; K^+ 10.0 mM, absence of Gd): 578 ± 15 cells per filter
Motility (mean number of cells per filter) ([1]; K^+ 16.25 mM, absence of Gd): 494 ± 49 cells per filter
Motility (mean number of cells per filter) ([1]; K^+ 22.0 mM, absence of Gd): 558 ± 25 cells per filter
Motility (mean number of cells per filter) ([1]; K^+ 27.5 mM, absence of Gd): 471 ± 57 cells per filter
Motility (mean number of cells per filter) ([1]; K^+ 35.0 mM, absence of Gd): 646 ± 65 cells per filter
Motility (mean number of cells per filter) ([1]; K^+ 54.0 mM, absence of Gd): 1188 ± 50 cells per filter
cell morphology ([6]; high K^+ (54 mM), no Gd^3+): rounder and exhibited pseudopodia that appeared blunted
cell morphology ([6]; low K^+ (0.54 mM), no Gd^3+): slightly more cells were observed with distinct lamellipodia

[Cl][Tb]([Cl])[Cl] [Tb^3+, TbCl3]
cell morphology ([6]; 20 μM in bathing solution): the cells had flattened and spread further

COc1ccc(CCN(C)CCCC(C#N)(c2ccc(OC)c(OC)c2)C(C)C)cc1OC (centres unmarked) [Verapamil, verapamil, reference compound]
Motility with Verapamil (mean number of cells per filter) ([1]; verapamil 100 μM, 0.5 mM K^+): 1116 cells per filter
Motility with Verapamil (mean number of cells per filter) ([1]; verapamil 100 μM, 5 mM K^+): 434^b cells per filter and 519 cells per filter
Motility with Verapamil (mean number of cells per filter) ([1]; verapamil 100 μM, 50 mM K^+): 1100 cells per filter
effect on motility ([1]; verapamil 100 μM, control, high K^+ and low K^+ conditions): did not reduce motility in a way corresponding to the reduction produced by Gd^3+ and Co^2+

bFGF: Basic fibroblast growth factor used to enhance motility
Motility (mean number of cells per filter) ([1]; bFGF 25 ng/ml in serum free RPMI-1640 in top well): 180 ± 30 cells per filter
increase in the motility of melanoma cells ([1]; bFGF 25 ng/ml in serum free RPMI-1640 vs no bFGF): three-fold increase
